What was measured:
Format in all cases: in vivo, C57BL/6J mice
[1] = system: adipocytes from epididymal white adipose tissue; experiment: Histopathology of epididymal white adipose tissue (adipocyte size); details: high-fat diet mice, 10 mg/kg/day oral; HF 6765.87, CON 3263.78
Method: (§1) All animal procedures were performed as per guidelines provided by the Institutional Animal Care and Use Committee of Central Taiwan University of Science and Technology. Firstly, C57BL/6J mice (4-5 weeks old) were purchased from the National Laboratory Animal Breeding and Research Center, National Science Council, Taiwan, and were maintained on a 12-hour light/dark cycle (light cycle: 7 a.m. to 7 p.m.). Seven days after acclimation, the C57BL/6J mice were divided randomly into two groups: the control group (CON, n=9) was fed with low-fat diet (Diet 12450B, Research Diets, Inc., New Brunswick, N.J. 08901, USA), whereas the experimental group (n=36) was fed with a 45% high-fat diet (Diet 12451, Research Diets, Inc., New Brunswick, N.J. 08901, USA) for 12 weeks. The low-fat diet was composed of protein 20%, carbohydrate 70% and fat 10%, whereas the high-fat diet was composed of protein 20%, carbohydrate 35%, and fat 45% (of total energy, % kcal). […] The body weight was measured weekly throughout the experimentation. […] Livers and white adipose tissue (WATs, including epididymal mesenteric, and retroperitoneal WAT) were excised according to the defined anatomical landmarks, and the weight of the tissues was measured. […]

[2] = Blood parameters assay (TG, FFA, TC, adiponectin, leptin) in high-fat diet-fed mice; details: 0.01 g/kg/day oral
Method: All animal procedures were performed as per guidelines provided by the Institutional Animal Care and Use Committee of Central Taiwan University of Science and Technology. Firstly, C57BL/6J mice (4-5 weeks old) were purchased from the National Laboratory Animal Breeding and Research Center, National Science Council, Taiwan, and were maintained on a 12-hour light/dark cycle (light cycle: 7 a.m. to 7 p.m.). […] After 8-week diet-induction period, the high-fat treated mice were randomly subdivided into four groups (n=9 per group), namely, control group (CON), high-fat control group (HF), TS group (including T1 and T2, representing mice treated with the compound of the present invention using a dosage of 10 mg/kg/day and 20 mg/kg/day, respectively), rosiglitazone treated group (Rosi; 1% methylcellulose 10 mg/kg body weight, obtained from GlaxoSmithKline, product number: BRL49653 C). TS and Rosi group were administrated through oral gavage one time per day from the 9th to the 12th week of the experiment while the mice were still on the high-fat diet. On the other hand, CON and HF groups were treated with vehicle only. The body weight was measured weekly throughout the experimentation. By the end of the experimentation, food was deprived from the mice (from 10 p.m. to 10 a.m.) On the next day (the 85th day), all mice were sacrificed for blood and tissue collection and analysis. The mice were untreated with TS or Rosi at the 85th day. Livers and white adipose tissue (WATs, including epididymal mesenteric, and retroperitoneal WAT) were excised according to the defined anatomical landmarks, and the weight of the tissues was measured. Tissues were immediately frozen using liqid nitrogen and then kept at −80° C. for the analysis of target gene expression. Heparin (30 units/mL, Sigma) was added into blood sample. Plasma samples were collected by centrifugation at […] for 15 minutes at 4° C. The separation of the plasma was finished within 30 minutes. Plasma was obtained for leptin assay.
Blood samples (0.8 mL) were collected from the retro-orbital sinus of fasting mice and the plasma triglycerides (TG), total cholesterol (TC), and free fatty acids (FFA) were analyzed using commercial assay kits according to the manufacture's directions (Triglycerides-E test, Cholesterol-E test, and FFA-C test, Wako Pure Chemical, Osaka, Japan).
The levels of adiponectin and leptin were analyzed by ELISA using commercial assay kits according to manufacture's directions (mouse/rat adiponectin ELISA kit, B-Bridege International, GmbH, Germany, and mouse leptin ELISA kit, Morinaga, Yokohama, Japan).

[3] = Measurement of hepatic lipids in high-fat diet-fed mice; details: 0.01 g/kg/day oral, week 12
Method: as §1, with “weeks.” for “weeks. The low-fat diet was composed of protein 20%, carbohydrate 70% and fat 10%, whereas the high-fat diet was composed of protein 20%, carbohydrate 35%, and fat 45% (of total energy, % kcal).”
For hepatic lipid extraction, a 0.375 g liver samples were homogenized with 1 mL distill water for 5 minutes. The dried pellet was finally resuspended in 0.5 mL ethanol and analyzed using a triglycerides kit as used for analyzing the serum lipids set forth above.

[4] = Body weight, weight gain and absolute tissue weights in high-fat diet-fed mice
Method: All animal procedures were performed as per guidelines provided by the Institutional Animal Care and Use Committee of Central Taiwan University of Science and Technology. Firstly, C57BL/6J mice (4-5 weeks old) were purchased from the National Laboratory Animal Breeding and Research Center, National Science Council, Taiwan, and were maintained on a 12-hour light/dark cycle (light cycle: 7 a.m. to 7 p.m.). Seven days after acclimation, the C57BL/6J mice were divided randomly into two groups: the control group (CON, n=9) was fed with low-fat diet (Diet 12450B, Research Diets, Inc., New Brunswick, N.J. 08901, USA), whereas the experimental group (n=36) was fed with a 45% high-fat diet (Diet 12451, Research Diets, Inc., New Brunswick, N.J. 08901, USA) for 12 weeks. The low-fat diet was composed of protein 20%, carbohydrate 70% and fat 10%, whereas the high-fat diet was composed of protein 20%, carbohydrate 35%, and fat 45% (of total energy, % kcal). After 8-week diet-induction period, the high-fat treated mice were randomly subdivided into four groups (n=9 per group), namely, control group (CON), high-fat control group (HF), TS group (including T1 and T2, representing mice treated with the compound of the present invention using a dosage of 10 mg/kg/day and 20 mg/kg/day, respectively), rosiglitazone treated group (Rosi; 1% methylcellulose 10 mg/kg body weight, obtained from GlaxoSmithKline, product number: BRL49653 C). TS and Rosi group were administrated through oral gavage one time per day from the 9th to the 12th week of the experiment while the mice were still on the high-fat diet. On the other hand, CON and HF groups were treated with vehicle only. The body weight was measured weekly throughout the experimentation. By the end of the experimentation, food was deprived from the mice (from 10 p.m. to 10 a.m.) On the next day (the 85th day), all mice were sacrificed for blood and tissue collection and analysis. The mice were untreated with TS or Rosi at the 85th day. Livers and white adipose tissue (WATs, including epididymal mesenteric, and retroperitoneal WAT) were excised according to the defined anatomical landmarks, and the weight of the tissues was measured. Tissues were immediately frozen using liqid nitrogen and then kept at −80° C. for the analysis of target gene expression. Heparin (30 units/mL, Sigma) was added into blood sample. Plasma samples were collected by centrifugation at […] for 15 minutes at 4° C. The separation of the plasma was finished within 30 minutes. Plasma was obtained for leptin assay.
Body weight of mice was monitored and measured daily at the same time throughout the experimentation. The differences between the body weight of the next day and the former day is defined as body weight gain. The pellet food was weighed and followed by being placed in the cage food container. Unconsumed pellet high-fat food was discarded each day and fresh pellet of high-fat diet was provided to ensure consistent food quality throughout the experimentation. The high-fat food was stored at 4° C.

[5] = 0.01 g/kg/day oral gavage weeks 9-12

Q: Which average area of the cut of the adipocytes (epididymal white adipose tissue) [1] does the source give for `CN(CCOc1ccc(CC2SC(=O)NC2=O)cc1)c1ccccn1` (centres unmarked) [Rosi, rosiglitazone] here?
A: 4600 µm²

Q: And the “Blood Adiponectin” value ([2]; week 12)?
A: 7.51 ± 0.53 ng/mL

Q: And the “Blood FFA” value ([2]; week 12)?
A: 1.52 ± 0.16 meq/L

Q: And the “Blood Leptin” value ([2]; week 12)?
A: 2.063 ± 0.111 µg/mL

Q: What about the “Blood TC” value ([2]; week 12) of the same compound?
A: 134.9 ± 3.5 mg/dL

Q: And the “Blood TG” value ([2]; week 12, fasting)?
A: 81.8 ± 5.8 mg/dL

Q: And the “Liver lipids: Total lipid” value [3]?
A: 60.2 ± 5.4 mg/g

Q: What about the “Liver lipids: Triacylglycerol” value [3] of the same compound?
A: 42.6 ± 5.8 µmol/g

Q: What about the “Absolute tissue weight BAT” value [4, 5] of the same compound?
A: 0.210 ± 0.023 g

Q: And the “Absolute tissue weight MWAT” value [4, 5]?
A: 0.238 ± 0.033 g

Q: What about the “Absolute tissue weight RWAT” value [4, 5] of the same compound?
A: 0.334 ± 0.057 g

Q: What about the “Absolute tissue weight Visceral fat” value [4, 5] of the same compound?
A: 1.330 ± 0.138 g

Q: What about the “Absolute tissue weight EWAT” value ([4]; 0.01 g/kg/day oral gavage weeks 9-12, mean ± S.E. n=9) of the same compound?
A: 1.003 ± 0.103 g

Q: And the Weight gain ([4]; 0.01 g/kg/day oral gavage weeks 9-12, week 12)?
A: 0.91 ± 1.45 g
